Consider one molecule from patent publication US20100240656A1, “COMPOUNDS AS HSP90 INHIBITORS” (ORYZON GENOMICS, S.A., priority 2007, published 2010).

Molecules are shown by their SMILES.

One test concerns K-562. Nature of the test: Cell proliferation by MTT method, K-562. It counts as cell-based. The settings on record: Homo sapiens. The protocol: (§1) The objective of this study was to determine the influence of the compounds on cell proliferation of K-562, A-549, MCF-7, HeLa, WI-38 by MTT method. The compounds were tested over a three-fold dilution series in triplicate for the determination of EC50 of their influence on cell proliferation.
(§2) The assay is based on the cleavage of the yellow tetrazolium salt MTT into purple formazan by metabolically active cells. The MTT formazan crystals are insoluble in aqueous solution, but may be solubilized by adding the 10% SDS, then incubating the plates overnight in a humidified atmosphere (e.g., 37° C., 5% CO2). The solubilized formazan product can be photometrically quantitated using Tecan reader. An increase in the number of living cells results in an increase of total metabolic activity, which leads to a stronger color formation.
(§3) EC50 values are defined as the compound concentration at which 50% of reaction product is formed.
(§4) Test compounds were dissolved to 10 mM in 100% DMSO.
(§5) In the day of the experiment cells were seeded into all wells of 96-well plates. Serial dilution of compounds was performed in a separate 96-well plate at 20 times final assay concentration in cell culture medium (DMEM with 10% Fetal Bovine Serum). 5 μl of compound was transferred to 96-well plate containing seeded cells in cell culture medium (final total volume=100 μl). Cells were cultured in the presence of the respective test substances in the 96-well plate at 37° C. in a humidified 5% CO2 incubator for a certain period of time (24, 72 or 120 hours). Then 5 μL of thiazolyl blue tetrazolium bromide (MTT) 5 mg/mL was added to the cells and the cells were reincubated 4 hours in a humidified 5% CO2 incubator. Then 10% SDS was added into the each well. The reaction product was quantified by measuring the absorbance at 568 nm using a scanning multiwell spectrophotometer Tecan. The developed color and thereby the absorbance values directly correlate to the number of the living cells.
(§6) The data were analyzed using Microsoft Excel 2000, GraphPad Prism 3.03. […]

The test system of a further test is HeLa. Kind of test: Cell proliferation by MTT method, HeLa. The settings on record: Homo sapiens. It counts as cell-based. The protocol: as §1, §2, §3, §4, §5, §6
On the technique in general: Formazan colour is commonly taken as a measure of viable cells.

The next test deals with WI-38. Nature of the test: Cell proliferation by MTT method, WI-38. It counts as cell-based. The note with it: Homo sapiens. The protocol:
as §1, §2, §3, §4, §5, §6

The subject of another test is MCF-7. Nature of the test: Cell growth inhibition by AlamarBlue method, MCF-7. The settings on record: Homo sapiens, MCF7; MCF-7, 72 hours; read-out: Cell growth inhibition values (EC50) obtained with AlamarBlue method. It is filed as cell-based, human. On the procedure: The human colon cancer cell line HCT-116 and the human breast cell lines MCF-7 and SKBr3 were from the American Type Culture Collection (ATCC; CCL-247, HTB-22 and HTB-30, respectively).
The HCT-116 and SKBr3 cell lines were maintained in DMEM GlutaMAX (Invitrogen) supplemented with 10% fetal calf serum and the MCF-7 cell line was maintained in RPMI1640 GlutaMAX (Invitrogen) containing 1 mM sodium pyruvate and 10% fetal calf serum. Cells were grown in a humidified incubator at 37° C. in 5% CO2
Cells were plated in 96-well plates (Costar, 3596) at a density of 6000 cells/well in 50 μL medium 24 h before addition of the compounds. Compounds were then added in 8 concentrations, each in triplicate (dilution series of 1 to 3). To do so, a compound-dilution plate at 200× the screening concentrations was prepared in DMSO 100% (Sigma, 154938). Then, 1.7 μL of the 200× diluted compounds were transferred to a new plate and 170 μL of media were added and mixed with the pipette (plate at 2×). Columns 11 and 12 of this plate (controls) were filled with 1% DMSO in cell media (i.e. 1.7 μL DMSO and 170 μL cell media). Finally, 50 μL of this intermediate plate at 2× were transferred to the plate containing the seeded cells and slowly shaken manually. Cells were grown as described above. AlamarBlue viability assay (Biosource, Invitrogen, DAL1100) was performed 72 hours later following manufacturer's protocol. In brief, AlamarBlue diluted in media was added to cells to have a 5% solution (a 2× solution was prepared in media and 100 μL of this solution were transferred to each well, i.e. final volume of 200 μL). Cells were incubated at 37° C., 3 hours and at room temperature for an additional 30 min. Cells with no compound and, cells with no compound and lysed with triton X-100 (30 μL/well added 10 min before treatment with AlamarBlue) were used as controls (6 replicates of each). Fluorescence was monitored at 530 nm excitation and 590 nm emission wavelengths. Results were quantified using ELx800 Universal Microplate Reader (Bio-Tek Instruments, Inc.). EC50 were calculated as the dose of compound required to inhibit cell growth by 50%.

The term EC50 denotes the concentration needed to bring the measured effect to its halfway point.

As for `NCCCCCn1c(Sc2cc3c(cc2I)OCO3)nc(C(N)=O)c1N` [Example 6, 5-amino-1-(5-amino-pentyl)-2-(6-iodo-benzo[1,3]dioxol-5-ylsulfanyl)-1H-imidazole-4-carboxamide], the EC50 was greater than 100 µM with K-562 (K562, 24 h, K 562, incubation 1 day); 12.2 µM with K-562 (K562, 72 h, K 562, incubation 3 days); 9.1 µM in the test on K-562 (K562, 120 h, K 562, incubation 5 days); greater than 100 µM with HeLa (24 h, incubation 1 day); 14.6 µM with HeLa (72 h, incubation 3 days); 8.6 µM with HeLa (120 h, incubation 5 days). Moreover, the EC50 was greater than 100 µM in the test with WI-38 (24 h, WI-38, incubation 1 day); 27.7 µM with WI-38 (72 h, WI-38, incubation 3 days); 19.5 µM with WI-38 (120 h, WI-38, incubation 5 days); 15.9 µM with MCF-7.
